The source of these data is US9221826B2, “Pyrrolopyridazine JAK3 inhibitors and their use for the treatment of inflammatory and autoimmune diseases” (Bristol-Myers Squibb Company, priority 2011, dated 2015).

Common to all, as to format: biochemical
For one assay, the target named is T1, JAK3 enzyme (Homo sapiens, UniProt P52333).
T1 sequence (P52333 1-1124): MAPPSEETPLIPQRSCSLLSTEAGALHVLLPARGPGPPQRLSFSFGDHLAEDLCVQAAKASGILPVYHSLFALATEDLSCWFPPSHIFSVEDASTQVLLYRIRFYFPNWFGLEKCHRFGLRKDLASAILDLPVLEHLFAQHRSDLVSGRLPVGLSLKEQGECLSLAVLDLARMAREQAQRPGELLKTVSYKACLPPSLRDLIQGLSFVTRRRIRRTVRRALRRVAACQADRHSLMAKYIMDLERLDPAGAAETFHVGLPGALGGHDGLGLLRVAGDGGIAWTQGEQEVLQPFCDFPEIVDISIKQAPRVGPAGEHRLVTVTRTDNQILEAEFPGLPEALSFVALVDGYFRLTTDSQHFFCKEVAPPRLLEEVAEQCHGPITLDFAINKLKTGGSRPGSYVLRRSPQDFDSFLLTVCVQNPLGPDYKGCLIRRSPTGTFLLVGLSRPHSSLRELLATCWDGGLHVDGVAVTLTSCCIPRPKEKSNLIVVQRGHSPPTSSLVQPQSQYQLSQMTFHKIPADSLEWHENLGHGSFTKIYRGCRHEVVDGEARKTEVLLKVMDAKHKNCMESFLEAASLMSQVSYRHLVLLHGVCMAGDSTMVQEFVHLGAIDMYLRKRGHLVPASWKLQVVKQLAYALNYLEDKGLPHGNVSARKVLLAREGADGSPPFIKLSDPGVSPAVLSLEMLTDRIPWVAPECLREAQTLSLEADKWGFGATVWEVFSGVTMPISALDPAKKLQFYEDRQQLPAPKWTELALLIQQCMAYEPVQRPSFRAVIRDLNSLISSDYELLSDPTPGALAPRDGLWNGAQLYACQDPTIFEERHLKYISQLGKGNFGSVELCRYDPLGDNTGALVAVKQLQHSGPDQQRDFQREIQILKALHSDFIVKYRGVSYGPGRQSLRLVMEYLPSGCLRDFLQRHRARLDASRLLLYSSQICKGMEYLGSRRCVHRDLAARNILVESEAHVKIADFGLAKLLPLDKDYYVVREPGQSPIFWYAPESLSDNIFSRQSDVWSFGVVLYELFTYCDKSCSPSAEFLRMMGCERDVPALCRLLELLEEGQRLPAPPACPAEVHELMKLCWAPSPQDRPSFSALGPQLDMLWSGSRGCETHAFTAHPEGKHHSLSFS
In words: JAK3 Kinase Assay Protocol (Filter). The following applies: 33P γ-ATP, 8 μM ATP, CSKtide substrate, read-out: LLE_JAK3_FB (IC50). As to the method:
Kinase reactions consisted of 5 ng of JAK3 enzyme, 30 uM CSKtide substrate, 0.2 μCi ^33P γ-ATP, 8 μM ATP in 30 μl kinase buffer (50 mM Hepes, pH 8.0, 10 mM MgCl2, 1 mM EGTA, 2 mM DTT). Reactions were incubated for 30 minutes at room temperature and stopped by the addition of cold trichloroacetic acid (TCA) to a final concentration of 15%. TCA precipitates were collected onto 384 well phosphocellulose filters (Millipore) using a Platemate to transfer the reaction mixture, washed on an EMBLA plate washer and the filters were quantitated using a TopCount 384-well liquid scintillation counter. […] Compounds were dissolved at 10 mM in dimethylsulfoxide (DMSO) and evaluated at six concentrations, each in triplicate. The final concentration of DMSO in the assay equaled 2%. IC50 values were derived by non-linear regression analysis.

The target of another assay is T2, GST-JAK3 enzyme (Homo sapiens, UniProt P52333).
T2 sequence (P52333 1-1124): T1 sequence (P52333 1-1124)
Put plainly: JAK3 Kinase Assay Protocol (Caliper). The following applies: Caliper LabChip assay, ATP 8 μM, fluoresceinated peptide; read-out: LLE_JAK3_CAL (IC50). Here is the method:
The assay reactions were performed in U-bottom 384-well plates. […] The reaction was initiated by the combination of GST-JAK3 enzyme with substrates and test compounds. The reactions were incubated at room temperature for 3 hours and terminated by adding 60 μl of 35 mM EDTA to each sample. Each reaction mixture was analyzed on the Caliper LabChip 3000 (Caliper, Hopkinton, Mass.) by electrophoretic separation of the fluorescent substrate and phosphorylated product. […] Compounds were dissolved at 10 mM in dimethylsulfoxide (DMSO) and evaluated at eleven concentrations. IC50 values were derived by non-linear regression analysis.

For a further assay, the target named is GST-JAK1 enzyme (Homo sapiens, UniProt P23458). Put plainly: JAK1 Kinase Assay Protocol. The following applies: Caliper LabChip assay, ATP 100 μM, fluoresceinated peptide; read-out: LLE_JAK1 (IC50). As to the method:
The assay reactions were performed in U-bottom 384-well plates. The final assay volume was 30 μl prepared from 15 μl additions of enzyme and substrates (fluoresceinated peptide and ATP) and test compounds in assay buffer (20 mM HEPES pH 7.4, 10 mM MgCl2, 25 mM beta-glycerol phosphate, 0.015% Brij35 and 4 mM DTT). The reaction was initiated by the combination of GST-JAK1 enzyme with substrates and test compounds. The reactions were incubated at room temperature for 3 hours and terminated by adding 60 μl of 35 mM EDTA to each sample. Each reaction mixture was analyzed on the Caliper LabChip 3000 (Caliper, Hopkinton, Mass.) by electrophoretic separation of the fluorescent substrate and phosphorylated product. […] The final concentration of reagents in the assays was: ATP, 100 μM; fluoresceinated peptide, 1.5 μM; GST-JAK1, 12.5 nM; and DMSO, 1.6%. […] Compounds were dissolved at 10 mM in dimethylsulfoxide (DMSO) and evaluated at eleven concentrations. IC50 values were derived by non-linear regression analysis.

GST-JAK1 enzyme, sequence (P23458 whole entry): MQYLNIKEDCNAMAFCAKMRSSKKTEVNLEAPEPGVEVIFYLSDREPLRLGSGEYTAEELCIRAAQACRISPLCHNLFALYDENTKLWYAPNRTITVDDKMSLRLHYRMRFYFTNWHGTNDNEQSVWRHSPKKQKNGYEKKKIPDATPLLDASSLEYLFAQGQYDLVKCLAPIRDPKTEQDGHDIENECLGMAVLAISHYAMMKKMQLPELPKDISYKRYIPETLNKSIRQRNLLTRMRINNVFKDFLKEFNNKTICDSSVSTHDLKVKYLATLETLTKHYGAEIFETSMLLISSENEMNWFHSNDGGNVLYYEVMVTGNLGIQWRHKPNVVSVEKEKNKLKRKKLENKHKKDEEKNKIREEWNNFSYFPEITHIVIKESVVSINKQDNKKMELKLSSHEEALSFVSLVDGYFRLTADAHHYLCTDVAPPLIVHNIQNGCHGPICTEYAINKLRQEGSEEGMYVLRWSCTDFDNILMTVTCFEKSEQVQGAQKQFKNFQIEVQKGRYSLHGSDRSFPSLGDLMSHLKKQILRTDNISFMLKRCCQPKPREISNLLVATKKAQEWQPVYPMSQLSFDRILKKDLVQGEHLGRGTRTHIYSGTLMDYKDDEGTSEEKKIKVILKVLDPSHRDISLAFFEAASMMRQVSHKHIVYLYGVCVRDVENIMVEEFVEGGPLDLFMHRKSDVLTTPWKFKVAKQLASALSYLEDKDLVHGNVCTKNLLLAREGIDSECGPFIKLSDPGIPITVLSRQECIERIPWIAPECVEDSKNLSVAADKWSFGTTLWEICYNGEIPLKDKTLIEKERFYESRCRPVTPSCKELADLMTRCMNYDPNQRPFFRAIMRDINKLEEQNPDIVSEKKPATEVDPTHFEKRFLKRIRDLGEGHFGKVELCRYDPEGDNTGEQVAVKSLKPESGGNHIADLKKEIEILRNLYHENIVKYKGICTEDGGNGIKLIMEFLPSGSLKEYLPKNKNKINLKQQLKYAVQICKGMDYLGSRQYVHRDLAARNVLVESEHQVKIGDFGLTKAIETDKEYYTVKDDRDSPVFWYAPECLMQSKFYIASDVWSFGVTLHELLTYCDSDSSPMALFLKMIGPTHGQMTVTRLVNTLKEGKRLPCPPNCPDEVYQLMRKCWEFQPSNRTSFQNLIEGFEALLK

For `CC1CCN(c2cc3c(N[C@H](C)C(C)(C)F)c(C(N)=O)cnn3c2)C1=O` (mixture of isomers) [Example 134], the results for the IC50 on JAK3 enzyme, on GST-JAK3 enzyme and on GST-JAK1 enzyme were 8.7 nM, 8 nM and 40.1 nM, respectively.
Take `CC(Nc1c(C(N)=O)cnn2cc(-c3ccncc3)cc12)c1cc(F)ccc1F` (racemic) [Example 181, (+/−)-4-((1-(2,5-difluorophenyl)ethyl)amino)-6-(4-pyridinyl)pyrrolo[1,2-b]pyridazine-3-carboxamide]: the IC50 (usually the concentration that gives 50% inhibition) at JAK3 enzyme stood at 49.2 nM; at GST-JAK3 enzyme, 96.4 nM; on GST-JAK1 enzyme, 106 nM.
Consider `C[C@@H](Nc1c(C(N)=O)cnn2cc(-c3cccc(C(O)CO)c3)cc12)C1CC1` (mixture of isomers) [Example 187, (R)-4-(1-cyclopropylethylamino)-6-(3-(1,2-dihydroxyethyl)phenyl)pyrrolo[1,2-b]-pyridazine-3-carboxamide], for which the IC50 on JAK3 enzyme was determined as 1 nM; on GST-JAK3 enzyme, 1.3 nM; on GST-JAK1 enzyme, 3 nM.
Consider `CC(Nc1c(C(N)=O)cnn2cc(-c3ccccc3)cc12)C(C)(C)C(N)=O` (racemic) [Example 193, (+/−)-4-(4-amino-3,3-dimethyl-4-oxobutan-2-ylamino)-6-phenylpyrrolo[1,2-b]-pyridazine-3-carboxamide], for which the concentration for half-maximal inhibition (IC50) at JAK3 enzyme was 1.8 nM; at GST-JAK1 enzyme, 2.7 nM.
Consider `COc1ccc(-c2cc3c(N[C@H](C)C(O)C4CC4)c(C(N)=O)cnn3c2)cn1` (single isomer, unassigned; isomer a) [Example 210], for which the values for the IC50 on JAK3 enzyme, on GST-JAK3 enzyme and at GST-JAK1 enzyme were 0.5 nM, 0.8 nM and 3.6 nM, respectively.
Taken in the same sequence, the figures for `C[C@@H](Nc1c(C(N)=O)cnn2cc(N3CCCC3=O)cc12)C(C)(C)C` [Example 2] were 0.9 nM, 3.7 nM and 43 nM.
For `C[C@@H](Nc1c(C(N)=O)cnn2cc(-n3ccccc3=O)cc12)C(C)(C)C` [Example 5] the same measures were 48.4 nM, 24 nM and 193 nM.
Regarding `CCOC(=O)Nc1cc2c(N[C@H](C)C(C)(C)C)c(C(N)=O)cnn2c1` [Example 9], the half-maximal inhibitory concentration (IC50) amounted to 0.2 nM on JAK3 enzyme, 0.7 nM at GST-JAK3 enzyme and 7 nM on GST-JAK1 enzyme.
`C[C@@H](Nc1c(C(N)=O)cnn2cc(N3CCCCS3(=O)=O)cc12)C(C)(C)C` [Example 17]: the IC50 was 21.6 nM at JAK3 enzyme, 22.4 nM at GST-JAK3 enzyme and 141 nM on GST-JAK1 enzyme.
Taken in the same sequence, the figures for `CC(C)[C@H]1COC(=O)N1c1cc2c(N[C@H](C)C(C)(C)C)c(C(N)=O)cnn2c1` [Example 18] were 109 nM, 105 nM and 570 nM.
Taken in the same sequence, the figures for `C[C@@H](Nc1c(C(N)=O)cnn2cc(N3CCOC3=O)cc12)C(C)(C)C` [Example 22] were 0.7 nM, 2.8 nM and 34 nM.
As to `C[C@@H](Nc1c(C(N)=O)cnn2cc(N3CCN(C)C3=O)cc12)C(C)(C)C` [Example 25], the half-inhibitory concentration (IC50) on JAK3 enzyme was 5.9 nM; on GST-JAK3 enzyme, 4.7 nM; at GST-JAK1 enzyme, 86 nM.
Taken in the same sequence, the figures for `C[C@@H](Nc1c(C(N)=O)cnn2cc(N3CCNC3=O)cc12)C(C)(C)C` [Example 29] were 1.2 nM, 5.3 nM and 46.1 nM.
For the compound `C[C@@H](Nc1c(C(N)=O)cnn2cc(-c3ccc(F)cc3)cc12)C(C)(C)F` [Example 37], the figures for the half-inhibitory concentration (IC50) on JAK3 enzyme, at GST-JAK3 enzyme and on GST-JAK1 enzyme were 18.8 nM, 0.6 nM and 3.8 nM, respectively.
For `C[C@@H](Nc1c(C(N)=O)cnn2cc(-c3ccn[nH]3)cc12)C(C)(C)F` [Example 43] the same measures were 1.2 nM, 2.5 nM and 8.8 nM.
For `C[C@@H](Nc1c(C(N)=O)cnn2cc(-c3cccc(C#N)c3)cc12)C(C)(C)F` [Example 53, (R)-6-(3-cyanophenyl)-4-(3-fluoro-3-methylbutan-2-ylamino)pyrrolo[1,2-b]pyridazine-3-carboxamide] the same measures were 0.9 nM, 1.4 nM and 5.2 nM.
For `C[C@@H](N)c1cccc(-c2cc3c(N[C@H](C)C(C)(C)F)c(C(N)=O)cnn3c2)c1` [Example 62] the same measures were 0.7 nM, 1.8 nM and 4 nM.
`C[C@@H](Nc1c(C(N)=O)cnn2cc(-c3cccc(CN)c3)cc12)C(C)(C)F` [Example 68, 6-(3-(aminomethyl)phenyl)-4-(((1R)-2-fluoro-1,2-dimethylpropyl)amino) pyrrolo[1,2-b]pyridazine-3-carboxamide]: the concentration for half-maximal inhibition (IC50) was found to be 0.7 nM at JAK3 enzyme and 1 nM on GST-JAK3 enzyme.
For `NC(=O)c1cnn2cc(-c3ccccc3)cc2c1N[C@H](C(N)=O)c1ccccc1` [Example 125], the IC50 on JAK3 enzyme was 18.6 nM; on GST-JAK3 enzyme it was 66.7 nM; at GST-JAK1 enzyme, 260 nM.
Turning to `CC(C)Nc1c(C(N)=O)cnn2cc(-c3ccc4c(c3)OCO4)cc12` [Example 149], at GST-JAK3 enzyme, the half-maximal inhibitory concentration (IC50) came out at 23.8 nM.
Regarding `COc1ccc(-c2cc3c(N[C@H](C)C(C)(C)c4nc(C(N)=O)co4)c(C(N)=O)cnn3c2)cc1` [Example 219], the IC50 at GST-JAK3 enzyme turned out to be 1.2 nM; at GST-JAK1 enzyme it was 0.6 nM.
For `C[C@@H](Nc1c(C(N)=O)cnn2cc(-c3ccc(C#N)cc3)cc12)C(C)(C)c1nc(C(N)=O)co1` [Example 222] the same measures were 0.9 nM and 0.4 nM.
Take `CC[C@@H](c1nc(C(N)=O)co1)[C@@H](C)Nc1c(C(N)=O)cnn2cc(-c3ccc(OC)nc3)cc12` [Example 224, 2-((2R,3R)-2-((3-carbamoyl-6-(6-methoxypyridin-3-yl)pyrrolo[1,2-b]pyridazin-4-yl)amino)pentan-3-yl)oxazole-4-carboxamide]: the IC50 on GST-JAK3 enzyme turned out to be 0.3 nM; on GST-JAK1 enzyme, 0.5 nM.
With `C[C@@H](O)[C@@H](COP(=O)(O)O)Nc1c(C(N)=O)cnn2cc(-c3ccccc3)cc12` [Example 240, (2R,3R)-2-((3-carbamoyl-6-phenylpyrrolo[1,2-b]pyridazin-4-yl)amino)-3-hydroxybutyl dihydrogen phosphate, disodium], the IC50 at GST-JAK3 enzyme is 880 nM; at GST-JAK1 enzyme, 2200 nM.
